Measurements taken from PMC7440915, “Discovery of surrogate agonists for visceral fat Treg cells that modulate metabolic indices in vivo” (eLife, 2020).
Where no end group is shown, it is not given here.

System: vTreg53 Treg cells
Assay: Proliferation of transferred vTreg53 Treg cells in spleen after immunization
Assay type: in vivo, mouse
Details: CFA/Fat1562, 200 µg s.c., three days
Excerpt: Figure 4. SPs induce proliferation and activation of vTreg53 Treg cells in vitro and in vivo. (A–D) Proliferation and activation of vTreg53 Treg cells by different concentrations of SPs for 3 days in vitro (n = 3). (A) Representative flow cytometric plot of cell division. (B) Summary of cell proliferation. (C) Mean flourescence intensity (MFI) of CD44 staining in clonotype^+ Treg cells. (D) MFI of CD62L staining in clonotype^+ Treg cells. (E) Proliferation of transferred CD45.2^+ vTreg53 Treg cells in the spleen of CD45.1^+ B6 recipient mice immunized s.c. with CFA or CFA/Fat1562 at day 3 (n = 3). […]
To assess early Treg proliferation following peptide stimulation in vivo, 0.4 million Treg cells were sorted from pooled Spl and LNs of 6-8wk-old male CD45.2^+ Tg^+ Foxp3-GFP^KI/y mice by Moflo, labeled by the CellTrace Violet dye (ThermoFisher Scientific), and were i.v.-injected into 6-8wk old male B6.CD45.1^+ mice. […] Proliferation of clonotype^+ Tregs in the spleen was determined three days later. […] Six weeks later, the recipient mice were immunized with 200 µg CFA/peptides s.c. on the lower back, and one week later were boosted with 100 μg IFA/peptides i.p. After another week, clonotype^+ CD45.2^+ Treg cells from the Spl/LNs or VAT of recipient mice were analyzed by flow cytometry and double-sorted for ultra-low-input RNA-seq. […]

Sequence: TMYKNPRPMAATG [Fat1562]
- proliferation of transferred clonotype^+ Treg cells in spleen: robust proliferation
